Data on 21 compounds can be found in PubChem BioAssay AID330 (DTP/NCI, 2004).

Where “and” joins values, the source holds several entries; their conditions need not be identical. Equal values may be shown once. Toxic doses and inconclusive results are not listed.

This assay concerns P388 leukemia ip, CD2F1 mice, survival T/C. Briefly: NCI In Vivo Anticancer Drug Screen. Data for tumor model P388 Leukemia (intraperitoneal) in CD2F1 (CDF1) mice. As to conditions: endpoint: median survival time, higher = longer survival. The method, boiled down:
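Mice carrying the transplanted tumor received test compound or vehicle. Survival was recorded in each group, and the value is the treated-group measurement divided by that of the vehicle-treated control group.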

Where [1] appears, read: dose: 25.0 mg/kg/injection, schedule: Q01DX001 (ip), vehicle: Klucel (hydroxypropylcellulose) (HPC).
The mark [2] stands for this setting: dose: 50.0 mg/kg/injection, schedule: Q01DX001 (ip), vehicle: Klucel (hydroxypropylcellulose) (HPC).
Setting [3] is: dose: 12.5 mg/kg/injection, schedule: Q01DX009 (ip), vehicle: saline with Tween-80.
[4] abbreviates: dose: 50.0 mg/kg/injection, schedule: Q01DX009 (ip), vehicle: saline with Tween-80.
Where [5] appears, read: dose: 50.0 mg/kg/injection, schedule: Q01DX005 (ip), vehicle: Klucel (hydroxypropylcellulose) (HPC).
[6] abbreviates: dose: 60.0 mg/kg/injection, schedule: Q01DX005 (ip), vehicle: saline with Tween-80.
Where [7] appears, read: dose: 120.0 mg/kg/injection, schedule: Q01DX005 (ip), vehicle: saline with Tween-80.
The mark [8] stands for this setting: dose: 240.0 mg/kg/injection, schedule: Q01DX005 (ip), vehicle: saline with Tween-80.
Where [9] appears, read: dose: 50.0 mg/kg/injection, schedule: Q01DX005 (ip), vehicle: saline with Tween-80.
[10] abbreviates: dose: 100.0 mg/kg/injection, schedule: Q01DX005 (ip), vehicle: saline with Tween-80.
The mark [11] stands for this setting: dose: 200.0 mg/kg/injection, schedule: Q01DX005 (ip), vehicle: saline with Tween-80.

Regarding `C(=N\Nc1nnc2c3ccccc3c3ccccc3c2n1)/c1ccc2c(c1)OCO2`, the T/C is, setting by setting: (dose: 50.0 mg/kg/injection, schedule: Q04DX002 (ip), vehicle: suspension in saline) 91 % of control; (dose: 100.0 mg/kg/injection, schedule: Q04DX002 (ip), vehicle: suspension in saline) 88 % of control; (dose: 200.0 mg/kg/injection, schedule: Q04DX002 (ip), vehicle: suspension in saline) 91 % of control.

In the case of `O=C(COc1nccc2nc(-c3ccccc3)cn12)c1ccccc1`, the T/C reads like this: (dose: 1.56 mg/kg/injection, schedule: Q01DX009 (ip), vehicle: Klucel (hydroxypropylcellulose) (HPC)) 96 % of control; (dose: 3.12 mg/kg/injection, schedule: Q01DX009 (ip), vehicle: Klucel (hydroxypropylcellulose) (HPC)) 89 % of control; (dose: 6.25 mg/kg/injection, schedule: Q01DX009 (ip), vehicle: Klucel (hydroxypropylcellulose) (HPC)) 89 % of control and 92 % of control; (dose: 12.5 mg/kg/injection, schedule: Q01DX001 (ip), vehicle: Klucel (hydroxypropylcellulose) (HPC)) 95 % of control; under setting [1], 95 % of control; under setting [2], 96 % of control.

As for `Cc1cccc2c(C(=O)O)cc(-c3ccc(Cl)cc3)nc12`, the T/C reads like this: under setting [3], 104 % of control; (dose: 25.0 mg/kg/injection, schedule: Q01DX009 (ip), vehicle: saline with Tween-80) 99 % of control; under setting [4], 108 % of control.

As for `NC(=O)C1=C2NC(=O)c3ccccc3C2C2=C1CCCC2` (stereo not given), the T/C is, setting by setting: (dose: 12.5 mg/kg/injection, schedule: Q01DX005 (ip), vehicle: Klucel (hydroxypropylcellulose) (HPC)) 90 % of control; (dose: 25.0 mg/kg/injection, schedule: Q01DX005 (ip), vehicle: Klucel (hydroxypropylcellulose) (HPC)) 92 % of control; under setting [5], 98 % of control and 105 % of control.

Regarding `O=C1CN(C2CC2N2CC(=O)OC(=O)C2)CC(=O)O1` (stereo not given), the T/C is 97 % of control (dose: 100.0 mg/kg/injection, schedule: Q04DX003 (ip), vehicle: saline with Tween-80) and 89 % of control (dose: 400.0 mg/kg/injection, schedule: Q04DX003 (ip), vehicle: saline with Tween-80).

As for `COc1cc(C(=O)N/N=C/C(=O)O)cc(OC)c1OC`, the T/C under setting [5] is 101 % of control; the T/C (dose: 100.0 mg/kg/injection, schedule: Q01DX005 (ip), vehicle: Klucel (hydroxypropylcellulose) (HPC)) was 104 % of control; the T/C (dose: 200.0 mg/kg/injection, schedule: Q01DX005 (ip), vehicle: Klucel (hydroxypropylcellulose) (HPC)) is 101 % of control.

Consider `CCOC(=O)c1ccc(NN=NC)cc1`, for which the T/C by setting is: under setting [3], 108 % of control and 113 % of control; under setting [4], 154 % of control and 173 % of control; (dose: 100.0 mg/kg/injection, schedule: Q01DX009 (ip), vehicle: saline with Tween-80) 108 % of control and 91 % of control.

As to `CC(=O)Nc1ccc(S(=O)(=O)/C(=C\c2ccc(Cl)o2)c2ccc([N+](=O)[O-])o2)cc1`, the T/C (dose: 50.0 mg/kg/injection, schedule: Q01DX009 (ip), vehicle: suspension in saline) is 86 % of control; the T/C (dose: 100.0 mg/kg/injection, schedule: Q01DX009 (ip), vehicle: suspension in saline) is 88 % of control; the T/C (dose: 200.0 mg/kg/injection, schedule: Q01DX009 (ip), vehicle: suspension in saline) was 92 % of control.

Consider `Nc1cc(=O)n(Cc2ccccc2)c(N)c1C(=O)NCc1ccccc1`, for which the T/C was 106 % of control under setting [6], 98 % of control under setting [7] and 100 % of control under setting [8].

On to `COC(=O)c1cc(-c2ccc(O)c(OC)c2)n2c(NC(=O)Nc3ccc(Cl)cc3)nnc2n1`, for which the T/C is, setting by setting: under setting [6], 91 % of control; under setting [7], 91 % of control; under setting [8], 91 % of control.

As for `O=C(Cc1ccccc1)OCC1=CCN2CC[C@@H](O)[C@@H]12`, the T/C (dose: 15.0 mg/kg/injection, schedule: Q01DX009 (ip), vehicle: saline + alcohol) is 97 % of control; the T/C (dose: 30.0 mg/kg/injection, schedule: Q01DX009 (ip), vehicle: saline + alcohol) is 99 % of control; the T/C (dose: 60.0 mg/kg/injection, schedule: Q01DX009 (ip), vehicle: saline + alcohol) was 97 % of control; the T/C (dose: 120.0 mg/kg/injection, schedule: Q01DX009 (ip), vehicle: saline + alcohol) was 109 % of control; the T/C (dose: 240.0 mg/kg/injection, schedule: Q01DX009 (ip), vehicle: saline + alcohol) is 105 % of control; the T/C (dose: 480.0 mg/kg/injection, schedule: Q01DX009 (ip), vehicle: saline + alcohol) was 116 % of control.

For the compound `CCOC(=O)CNCCN(CC)CC`, the T/C (dose: 100.0 mg/kg/injection, schedule: Q01DX001 (ip), vehicle: saline with Tween-80) is 109 % of control; the T/C (dose: 200.0 mg/kg/injection, schedule: Q01DX001 (ip), vehicle: saline with Tween-80) was 95 % of control; the T/C (dose: 400.0 mg/kg/injection, schedule: Q01DX001 (ip), vehicle: saline with Tween-80) is 100 % of control.

With `COC1(c2ccccc2)C2CCCCC2C2CCCCC21` (stereo not given), the T/C runs as follows: under setting [9], 100 % of control; under setting [10], 98 % of control; under setting [11], 100 % of control.

As for `CC(CO)CCC(O)C(C)(O)C1CCC2(O)C3=CC(=O)C4CC(O)C(O)CC4(C)C3CCC12C` (stereo not given), the T/C is 102 % of control (dose: 1.25 mg/kg/injection, schedule: Q01DX005 (ip), vehicle: Klucel (hydroxypropylcellulose) (HPC)); 97 % of control (dose: 2.5 mg/kg/injection, schedule: Q01DX005 (ip), vehicle: Klucel (hydroxypropylcellulose) (HPC)); 98 % of control (dose: 5.0 mg/kg/injection, schedule: Q01DX005 (ip), vehicle: Klucel (hydroxypropylcellulose) (HPC)); 100 % of control (dose: 10.0 mg/kg/injection, schedule: Q01DX005 (ip), vehicle: Klucel (hydroxypropylcellulose) (HPC)); 100 % of control (dose: 20.0 mg/kg/injection, schedule: Q01DX005 (ip), vehicle: Klucel (hydroxypropylcellulose) (HPC)); 100 % of control (dose: 40.0 mg/kg/injection, schedule: Q01DX005 (ip), vehicle: Klucel (hydroxypropylcellulose) (HPC)). In addition, the T/C (dose: 80.0 mg/kg/injection, schedule: Q01DX005 (ip), vehicle: Klucel (hydroxypropylcellulose) (HPC)) was 98 % of control.

Consider `Cc1cccc(C)c1NC(=O)/C(Cl)=C1/Sc2ccccc2NC1=O`, for which the T/C is 105 % of control under setting [9], 97 % of control under setting [10] and 88 % of control under setting [11].

With `c1ccc(CN2COc3c(ccc4ccccc34)C2)cc1`, the T/C is 97 % of control (dose: 100.0 mg/kg/injection, schedule: Q04DX003 (ip), vehicle: Klucel (hydroxypropylcellulose) (HPC)); 102 % of control (dose: 200.0 mg/kg/injection, schedule: Q04DX003 (ip), vehicle: Klucel (hydroxypropylcellulose) (HPC)); 96 % of control (dose: 400.0 mg/kg/injection, schedule: Q04DX003 (ip), vehicle: Klucel (hydroxypropylcellulose) (HPC)).

For the compound `N#C/C(=C\C(Cl)=C/c1ccccc1)C(N)=S`, the T/C runs as follows: (dose: 50.0 mg/kg/injection, schedule: Q01DX009 (ip), vehicle: saline) 103 % of control; (dose: 100.0 mg/kg/injection, schedule: Q01DX009 (ip), vehicle: saline) 100 % of control.

Regarding `COc1cccc2c1C(=O)c1c(O)c3c(c(O)c1C2=O)CC(O)(C(=O)CO)CC3OC1CC2C(OC3COCC(C#N)N32)C(C)O1` (stereo not given), the T/C was 102 % of control and 120 % of control (dose: 0.5 mg/kg/injection, schedule: Q04DX003 (ip), vehicle: saline with Tween-80); 116 % of control (dose: 1.0 mg/kg/injection, schedule: Q04DX003 (ip), vehicle: saline with Tween-80); 113 % of control (dose: 4.0 mg/kg/injection, schedule: Q04DX003 (ip), vehicle: saline with Tween-80).

Turning to `O=C(NCN1CCOCC1)c1ccccc1O`, the T/C was 98 % of control (dose: 100.0 mg/kg/injection, schedule: Q04DX002 (ip), vehicle: saline with Tween-80) and 104 % of control (dose: 200.0 mg/kg/injection, schedule: Q04DX002 (ip), vehicle: saline with Tween-80).

Regarding `Cc1ccc(SC(F)(F)C(F)C(F)(F)F)cc1` (stereo not given), the T/C was 98 % of control (dose: 50.0 mg/kg/injection, schedule: Q01DX005 (ip), vehicle: saline); 101 % of control (dose: 100.0 mg/kg/injection, schedule: Q01DX005 (ip), vehicle: saline); 100 % of control (dose: 200.0 mg/kg/injection, schedule: Q01DX005 (ip), vehicle: saline).

With `O=C1CCCC2OC3CCCC(=O)C3C(c3ccccc3)C12` (stereo not given), the T/C by setting is: under setting [1], 96 % of control; under setting [2], 100 % of control; (dose: 100.0 mg/kg/injection, schedule: Q01DX001 (ip), vehicle: Klucel (hydroxypropylcellulose) (HPC)) 90 % of control.
